Reference: patent US8202731B2, “HPTS-mono and bis Cys-MA polymerizable fluorescent dyes for use in analyte sensors” (Glumetrics, Inc., priority 2007, dated 2012)

How the values were obtained:
Type in all cases: physicochemical
[1] = Fluorescence of the dye in pH 7.4 PBS measured on the fluorimeter; conditions: pH 7.4 PBS (FIG. 9)
Description: Bis-MA was dissolved in pH 7.4 PBS and its fluorescence was measured on the fluorimeter. FIG. 9 compares Bis-MA with the Mono- and Tri-substituted HPTS derivatives.

[2] = Comparison of dyes: emission/absorbance ratio (apparent quantum yield) in pH 7.4 PBS; conditions: 1 × 10^−5 M in pH 7.4 PBS
[3] = Determination of dye pKa via pH study, dye immobilized in 40% DMAA hydrogel
Description: A hydrogel was prepared containing mono-CysMA, as described previously in U.S. patent application Ser. No. 11/671,880, to evaluate the fluorescence properties (excitation (ex), emission (em) and pKa) of mono-CysMA.
A pH study was carried out with the gel.
The three polymerizable dyes were immobilized using 40% DMAA and their pKa determined via a pH study.

With `C=C(C)C(=O)NCCCNS(=O)(=O)c1cc(S(=O)(=O)NCCCNC(=O)C(=C)C)c2ccc3c(S(=O)(=O)[O-])cc(O)c4ccc1c2c43.[Na+]` [Bis-MA] the “Shift of fluorescence spectrum relative to mono- and tri-substituted HPTS derivatives” value [1] was “red-shifted relative to the Mono product but blue-shifted relative to the Tri product”.

In the case of `O=S(=O)(O)c1cc(O)c2ccc3c(S(=O)(=O)O)cc(S(=O)(=O)O)c4ccc1c2c34` [HPTS, 8-hydroxypyrene-1,3,6-trisulfonic acid], the Absorbance [2] is reported as 0.1565, the Intensity at max ([2]; emission) is reported as 553 and the “Ratio (“Quantum Yield”)” value ([2]; Em/Abs ratio, apparent quantum yield, arbitrary numbers) is reported as 3533. It also gave a pKa ([3]; dye immobilized in 40% DMAA hydrogel, polymerizable dyes immobilized using 40% DMAA, pH study) of 7.3 and a pKa ([3]; pH study with hydrogel containing mono-CysMA (FIG. 2), HPTS given for comparison) of 7.3.
